# Assay results: the supplement of paper PMC10307832
# How the values were obtained:
# Assay in all cases: relative viability (nuclei count vs DMSO), 5 days (fraction); higher = more cells survive
# [1] = compound: C1CNCCC1C2=CC(=NN2)C3=CC=NC=C3 + CCNC(=O)c1noc(-c2cc(C(C)C)c(O)cc2O)c1-c1ccc(CN2CCOCC2)cc1 [Luminespib] (partner 0.01 µM)
# How it was run: (§1)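 Lung cancer cell lines were seeded in 1536-well plates and dosed by pin tool the next day, with either a single drug or a fixed anchor-drug dose combined with five library-drug doses (not always all listed) spaced in √10 steps. Five days later, one step fixed the cells and stained their nuclei (final 0.05% Triton X-100, 1% formaldehyde, 1 ug/ml Hoechst), and nuclei were counted on 4× images. Relative viability is the nuclei count in treated wells divided by the count in vehicle wells, and each value is the median of duplicate plates.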
# [2] = compound: C1CNCCC1C2=CC(=NN2)C3=CC=NC=C3 + Cc1nc(Nc2ncc(C(=O)Nc3c(C)cccc3Cl)s2)cc(N2CCN(CCO)CC2)n1 [Dasatinib] (partner 0.075 µM)
# How it was run: as §1
# [3] = compound: C[C@@H](N)c1ccc(C(=O)Nc2ccnc3[nH]ccc23)cc1 + COc1cccc2cc(-c3nc([C@H]4CC[C@H](C(=O)O)CC4)n4ncnc(N)c34)[nH]c12 [OSI-027] (partner 0.5 µM)
# How it was run: as §1
# Tanzisertib + Vorinostat = compound: O[C@H]1CC[C@H](Nc2ncc3nc(Nc4c(F)cc(F)cc4F)n([C@H]4CCOC4)c3n2)CC1 [Tanzisertib] + O=C(CCCCCCC(=O)Nc1ccccc1)NO [Vorinostat] (partner 1 µM)
# How it was run: as §1
cell line,measurement,setting,value
PC-14,relative viability,[1]; first compound 0.08 µM,0.151
same,relative viability,[1]; first compound 0.8 µM,0.162
same,relative viability,[1]; first compound 2.53 µM,0.18
same,relative viability,[1]; first compound 8 µM,0.151
same,relative viability,[2]; first compound 0.08 µM,0.245
same,relative viability,[2]; first compound 0.8 µM,0.272
same,relative viability,[2]; first compound 2.53 µM,0.296
same,relative viability,[2]; first compound 8 µM,0.221
same,relative viability,[3]; first compound 0.04 µM,0.846
same,relative viability,[3]; first compound 0.1265 µM,0.968
same,relative viability,[3]; first compound 0.4 µM,0.904
same,relative viability,[3]; first compound 1.265 µM,0.712
same,relative viability,[3]; first compound 4 µM,0.625
same,relative viability,Tanzisertib + Vorinostat; first compound 0.08 µM,0.75
same,relative viability,Tanzisertib + Vorinostat; first compound 0.253 µM,0.735
same,relative viability,Tanzisertib + Vorinostat; first compound 0.8 µM,0.701
same,relative viability,Tanzisertib + Vorinostat; first compound 2.53 µM,0.627
same,relative viability,Tanzisertib + Vorinostat; first compound 8 µM,0.357
RERF-LC-KJ,relative viability,[1]; first compound 0.08 µM,1.14
same,relative viability,[1]; first compound 0.8 µM,1.3
same,relative viability,[1]; first compound 2.53 µM,1.45
same,relative viability,[1]; first compound 8 µM,1.42
same,relative viability,[2]; first compound 0.08 µM,0.795
same,relative viability,[2]; first compound 0.8 µM,0.934
same,relative viability,[2]; first compound 2.53 µM,0.893
same,relative viability,[2]; first compound 8 µM,0.778
same,relative viability,[3]; first compound 0.04 µM,0.555
same,relative viability,[3]; first compound 0.1265 µM,0.628
same,relative viability,[3]; first compound 0.4 µM,0.591
same,relative viability,[3]; first compound 1.265 µM,0.672
same,relative viability,[3]; first compound 4 µM,0.6
same,relative viability,Tanzisertib + Vorinostat; first compound 0.08 µM,0.779
same,relative viability,Tanzisertib + Vorinostat; first compound 0.253 µM,0.712
same,relative viability,Tanzisertib + Vorinostat; first compound 0.8 µM,0.743
same,relative viability,Tanzisertib + Vorinostat; first compound 2.53 µM,0.573
same,relative viability,Tanzisertib + Vorinostat; first compound 8 µM,0.56
SK-LU-1,relative viability,[1]; first compound 0.08 µM,0.204
same,relative viability,[1]; first compound 0.8 µM,0.209
same,relative viability,[1]; first compound 2.53 µM,0.206
same,relative viability,[1]; first compound 8 µM,0.212
same,relative viability,[2]; first compound 0.08 µM,0.156
same,relative viability,[2]; first compound 0.8 µM,0.181
same,relative viability,[2]; first compound 2.53 µM,0.206
same,relative viability,[2]; first compound 8 µM,0.166
same,relative viability,[3]; first compound 0.04 µM,0.37
same,relative viability,[3]; first compound 0.1265 µM,0.356
same,relative viability,[3]; first compound 0.4 µM,0.365
same,relative viability,[3]; first compound 1.265 µM,0.385
same,relative viability,[3]; first compound 4 µM,0.359
same,relative viability,Tanzisertib + Vorinostat; first compound 0.08 µM,0.848
same,relative viability,Tanzisertib + Vorinostat; first compound 0.253 µM,0.824
same,relative viability,Tanzisertib + Vorinostat; first compound 0.8 µM,0.734
same,relative viability,Tanzisertib + Vorinostat; first compound 2.53 µM,0.9
same,relative viability,Tanzisertib + Vorinostat; first compound 8 µM,0.828
SK-MES-1,relative viability,[1]; first compound 0.08 µM,0.716
same,relative viability,[1]; first compound 0.8 µM,0.82
same,relative viability,[1]; first compound 2.53 µM,0.736
same,relative viability,[1]; first compound 8 µM,0.613
same,relative viability,[2]; first compound 0.08 µM,0.424
same,relative viability,[2]; first compound 0.8 µM,0.221
same,relative viability,[2]; first compound 2.53 µM,0.465
same,relative viability,[2]; first compound 8 µM,0.368
same,relative viability,[3]; first compound 0.04 µM,0.61
same,relative viability,[3]; first compound 0.1265 µM,0.574
same,relative viability,[3]; first compound 0.4 µM,0.573
same,relative viability,[3]; first compound 1.265 µM,0.673
same,relative viability,[3]; first compound 4 µM,0.602
same,relative viability,Tanzisertib + Vorinostat; first compound 0.08 µM,1.27
same,relative viability,Tanzisertib + Vorinostat; first compound 0.253 µM,1.1
same,relative viability,Tanzisertib + Vorinostat; first compound 0.8 µM,1.04
same,relative viability,Tanzisertib + Vorinostat; first compound 2.53 µM,1.07
same,relative viability,Tanzisertib + Vorinostat; first compound 8 µM,0.78
SW 900,relative viability,[1]; first compound 0.08 µM,0.187
same,relative viability,[1]; first compound 0.8 µM,0.172
same,relative viability,[1]; first compound 2.53 µM,0.165
same,relative viability,[1]; first compound 8 µM,0.168
same,relative viability,[2]; first compound 0.08 µM,0.568
same,relative viability,[2]; first compound 0.8 µM,0.445
same,relative viability,[2]; first compound 2.53 µM,0.519
same,relative viability,[2]; first compound 8 µM,0.452
same,relative viability,[3]; first compound 0.04 µM,0.657
same,relative viability,[3]; first compound 0.1265 µM,0.608
same,relative viability,[3]; first compound 0.4 µM,0.596
same,relative viability,[3]; first compound 1.265 µM,0.688
same,relative viability,[3]; first compound 4 µM,0.824
same,relative viability,Tanzisertib + Vorinostat; first compound 0.253 µM,0.604
same,relative viability,Tanzisertib + Vorinostat; first compound 0.8 µM,0.641
same,relative viability,Tanzisertib + Vorinostat; first compound 2.53 µM,0.512
same,relative viability,Tanzisertib + Vorinostat; first compound 8 µM,0.382
SW 1573,relative viability,[1]; first compound 0.8 µM,0.215
same,relative viability,[1]; first compound 2.53 µM,0.244
same,relative viability,[1]; first compound 8 µM,0.189
same,relative viability,[2]; first compound 0.8 µM,0.647
same,relative viability,[2]; first compound 2.53 µM,0.658
same,relative viability,[2]; first compound 8 µM,0.486
same,relative viability,[3]; first compound 0.04 µM,0.694
same,relative viability,[3]; first compound 0.1265 µM,0.604
same,relative viability,[3]; first compound 0.4 µM,0.69
same,relative viability,[3]; first compound 1.265 µM,0.485
same,relative viability,[3]; first compound 4 µM,0.485
same,relative viability,Tanzisertib + Vorinostat; first compound 0.08 µM,1.21
same,relative viability,Tanzisertib + Vorinostat; first compound 0.253 µM,0.666
same,relative viability,Tanzisertib + Vorinostat; first compound 0.8 µM,0.72
same,relative viability,Tanzisertib + Vorinostat; first compound 2.53 µM,1.04
same,relative viability,Tanzisertib + Vorinostat; first compound 8 µM,0.566
